Key:
cyclophilin D (CypD) [1] = biological target: T1, cyclophilin D (CypD) (Homo sapiens, UniProt P30405); assay: SPR; also FL-DSF (KD […]) and CETSA on immunoprecipitated CypD; format: binding
T1 construct: gene PPIF

cyclophilin D (CypD) [2] = biological target: T1, cyclophilin D (CypD); assay: photoactive click probe in A375 cells, azide-biotin conjugation, streptavidin pull-down and Western blot; format: cell-based
STING = STING (UniProt Q86WV6); assay: co-immunoprecipitation; details: reference: PERK wild type; sites T982

T1 sequence (P30405 30-207): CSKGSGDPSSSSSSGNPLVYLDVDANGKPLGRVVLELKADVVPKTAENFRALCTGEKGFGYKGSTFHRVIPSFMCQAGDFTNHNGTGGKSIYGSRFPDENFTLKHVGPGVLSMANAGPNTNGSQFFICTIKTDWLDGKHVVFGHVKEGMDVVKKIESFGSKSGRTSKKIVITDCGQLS

CCCCCCCCCCCCOC(=O)c1ccc2cc(O)ccc2c1 [DHN, dodecyl 6-hydroxy-2-naphthoate]
Kd (cyclophilin D (CypD) [1]): 1.19 ± 0.068 µM

C#CCCC1(CC(=O)OCCCCCOC(=O)c2ccc3cc(O)ccc3c2)N=N1 [DHN-P]
photoactive click probe in A375 cells, azide-biotin conjugation, streptavidin pu (cyclophilin D (CypD) [2]): DHN-P could effectively pull down CypD but not other components in the mPTP complex

PERK (from UniProt Q9NZJ5) PERK T982A
binding against the reference (STING): lost

From publication PMC12435844, “cGAS activation converges with intracellular acidification to promote STING aggregation and pyroptosis in tumor models” (The Journal of Clinical Investigation, 2025)
